One experiment deals with Neprilysin (Homo sapiens, UniProt P08473). Put plainly: Inhibition of human recombinant NEP ectopeptidase activity using Abz-dRGL-(EDDnp) as substrate preincubated for 10 mins with substrate by fluorimetric analysis.
The target of a further experiment is Aminopeptidase N (Homo sapiens, UniProt P15144). Put plainly: Inhibition of human recombinant AP-N ectopeptidase activity using alanine-MCA as substrate preincubated for 10 mins with substrate by fluorimetric analysis.

Numbered stars: 1 amine (or outer) side, 2 acyl side, 3 side chain; on linkers, the order of the positions; unused ones are H or OH. Square brackets hold non-standard residues; d marks the D form. Peptide text beside a SMILES is read from it. β3hPhg = O=C(C[C@@H](N[*:1])c1ccccc1)[*:2]; Phg = N[C@H](C(=O)O)c1ccccc1

Neprilysin, sequence (P08473 whole entry): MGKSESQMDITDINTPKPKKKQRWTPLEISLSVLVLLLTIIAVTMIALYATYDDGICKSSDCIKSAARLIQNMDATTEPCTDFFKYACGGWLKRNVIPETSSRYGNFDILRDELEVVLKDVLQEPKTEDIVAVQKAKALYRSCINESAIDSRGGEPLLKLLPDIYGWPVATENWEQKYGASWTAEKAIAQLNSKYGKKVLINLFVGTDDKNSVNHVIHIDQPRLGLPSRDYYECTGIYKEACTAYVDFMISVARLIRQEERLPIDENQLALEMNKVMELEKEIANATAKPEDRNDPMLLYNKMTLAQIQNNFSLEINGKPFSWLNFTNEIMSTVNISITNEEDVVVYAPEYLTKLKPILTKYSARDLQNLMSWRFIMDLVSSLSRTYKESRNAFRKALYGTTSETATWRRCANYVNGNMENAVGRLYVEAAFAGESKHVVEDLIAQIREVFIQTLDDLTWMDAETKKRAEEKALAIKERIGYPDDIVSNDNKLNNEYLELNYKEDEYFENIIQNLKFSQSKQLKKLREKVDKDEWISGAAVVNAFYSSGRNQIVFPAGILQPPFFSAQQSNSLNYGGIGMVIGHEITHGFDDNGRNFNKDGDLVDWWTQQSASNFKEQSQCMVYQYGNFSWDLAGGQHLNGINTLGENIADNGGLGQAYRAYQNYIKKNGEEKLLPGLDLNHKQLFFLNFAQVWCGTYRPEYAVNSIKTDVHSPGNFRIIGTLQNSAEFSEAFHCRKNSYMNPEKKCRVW
Aminopeptidase N, sequence (P15144 whole entry): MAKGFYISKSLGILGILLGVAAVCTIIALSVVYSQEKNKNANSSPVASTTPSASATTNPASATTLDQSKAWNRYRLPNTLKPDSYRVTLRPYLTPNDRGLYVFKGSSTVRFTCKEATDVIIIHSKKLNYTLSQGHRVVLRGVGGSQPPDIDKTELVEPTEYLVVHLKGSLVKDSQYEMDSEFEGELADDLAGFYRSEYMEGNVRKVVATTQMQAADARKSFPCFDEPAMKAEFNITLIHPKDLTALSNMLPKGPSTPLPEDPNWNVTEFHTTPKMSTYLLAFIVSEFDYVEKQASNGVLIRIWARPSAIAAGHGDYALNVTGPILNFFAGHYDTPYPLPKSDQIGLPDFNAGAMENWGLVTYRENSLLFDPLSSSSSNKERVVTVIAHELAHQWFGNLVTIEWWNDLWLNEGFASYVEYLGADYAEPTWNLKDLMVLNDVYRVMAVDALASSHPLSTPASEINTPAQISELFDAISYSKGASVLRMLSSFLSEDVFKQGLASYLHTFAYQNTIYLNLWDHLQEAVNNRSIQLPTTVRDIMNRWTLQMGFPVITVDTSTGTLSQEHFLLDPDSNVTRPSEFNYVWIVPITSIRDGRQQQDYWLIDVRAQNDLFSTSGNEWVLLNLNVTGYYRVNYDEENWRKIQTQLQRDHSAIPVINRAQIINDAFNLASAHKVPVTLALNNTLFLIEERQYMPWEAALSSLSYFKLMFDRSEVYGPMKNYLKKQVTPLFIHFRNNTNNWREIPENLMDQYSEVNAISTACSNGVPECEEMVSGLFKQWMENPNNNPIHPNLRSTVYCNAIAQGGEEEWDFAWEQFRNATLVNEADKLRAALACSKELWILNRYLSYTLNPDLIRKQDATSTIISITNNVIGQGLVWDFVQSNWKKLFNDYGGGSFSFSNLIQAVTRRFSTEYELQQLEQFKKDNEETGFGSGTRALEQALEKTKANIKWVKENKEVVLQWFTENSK

The IC50 is the midpoint of a concentration-inhibition curve. On to `N=C(N)NCCC[C@H](NC(=O)[C@H](CO)NC(=O)[C@@H](NC(=O)[C@H](CCCNC(=N)N)NC(=O)[C@@H](N)CCC(N)=O)c1ccccc1)C(=O)O` (H-QR[Phg]SR-OH), for which the IC50 on Neprilysin was over 100 µM.

With `NC(=O)CC[C@H](N)C(=O)N[C@@H](CCCN=C(N)N)C(=O)N[C@H](CC(=O)N[C@@H](CO)C(=O)N[C@@H](CCCN=C(N)N)C(=O)O)c1ccccc1` (H-QR[β3hPhg]SR-OH), the IC50 at Neprilysin is over 100 µM; on Aminopeptidase N, over 70 µM. In the case of H-ARFSR-OH, the IC50 on Neprilysin is over 70 µM. Take H-QRASR-OH: the IC50 at Neprilysin was over 100 µM; on Aminopeptidase N, over 70 µM. On to H-QRFSA-OH, for which, at Aminopeptidase N, the half-maximal inhibitory concentration (IC50) is over 70 µM.

The record behind these values is ChEMBL document CHEMBL2021861, “Structure-activity relationship study of opiorphin, a human dual ectopeptidase inhibitor with antinociceptive properties” (J Med Chem, 2012).
